Experimental data: the NIST ThermoML archive (doi:10.1021/je2007549)

Experiments:
[1] = 101 kPa, Liquid; for electrical conductivity: Direct current cell with electrodes; for viscosity: Falling or rolling sphere viscometry; for mass density: Vibrating tube method
[2] = xn = mol fraction of the nth substance listed; settings: 101 kPa, Liquid; for electrical conductivity: Direct current cell with electrodes; for mass density: Vibrating tube method; for viscosity: n

CCCC[P+](CCCC)(CCCC)CCCN.C[C@H](N)C(=O)[O-] [(3-aminopropyl)tributylphosphonium L-alaninate]
[1]
Settings | electrical conductivity [S/m] | mass density [kg/m3] | viscosity [mPa·s]
298.15 K | 0.0141 | 986.75 | 804.88
303.15 K | 0.0209 | 983.72 | 561.4
313.15 K | 0.032 | 977.65 | 291.07
323.15 K | 0.0464 | 971.62 | 164.61
333.15 K | 0.0649 | 965.71 | 106.7
343.15 K | 0.0884 | 959.97 | 65.96

CC(C)C[C@H](N)C(=O)[O-].CCCC[P+](CCCC)(CCCC)CCCN [(3-aminopropyl)tributylphosphonium L-leucinate]
[1]
Settings | electrical conductivity [S/m] | mass density [kg/m3] | viscosity [mPa·s]
298.15 K | 0.008 | 971.86 | 1227.9
303.15 K | 0.0108 | 968.8 | 855.26
313.15 K | 0.0185 | 962.68 | 417.9
323.15 K | 0.0291 | 956.54 | 224.29
333.15 K | 0.0414 | 950.54 | 130.46
343.15 K | 0.0605 | 944.58 | 81.01

CC(C)[C@H](N)C(=O)[O-].CCCC[P+](CCCC)(CCCC)CCCN [(3-aminopropyl)tributylphosphonium L-valinate]
[1]
Settings | electrical conductivity [S/m] | mass density [kg/m3] | viscosity [mPa·s]
298.15 K | 0.00815 | 980.72 | 1015.5
303.15 K | 0.011 | 977.68 | 695.04
313.15 K | 0.0188 | 971.57 | 350.86
323.15 K | 0.0294 | 965.45 | 192.24
333.15 K | 0.0447 | 959.5 | 114.05
343.15 K | 0.065 | 953.54 | 72.45

CC(C)[C@H](N)C(=O)[O-].CCCC[P+](CCCC)(CCCC)CCCN [(3-aminopropyl)tributylphosphonium L-valinate] + O
[2]
Settings | electrical conductivity [S/m] | mass density [kg/m3] | viscosity [mPa·s]
298.15 K, x2 = 0 | 0.00815 | 980.72 | 1015.5
298.15 K, x2 = 0.25 | 0.0116 | 982.82 | 734.22
298.15 K, x2 = 0.5 | 0.0168 | 987.18 | 505.63
298.15 K, x2 = 0.75 | 0.0414 | 995.89 | 237.96
303.15 K, x2 = 0 | 0.011 | 977.68 | 695.04
303.15 K, x2 = 0.25 | 0.0158 | 979.76 | 508.12
303.15 K, x2 = 0.5 | 0.0237 | 984.04 | 335.23
303.15 K, x2 = 0.75 | 0.0547 | 992.65 | 168.93
313.15 K, x2 = 0 | 0.0188 | 971.57 | 350.86
313.15 K, x2 = 0.25 | 0.0253 | 973.59 | 259.52
313.15 K, x2 = 0.5 | 0.0401 | 977.71 | 184.22
313.15 K, x2 = 0.75 | 0.0853 | 986.16 | 92.15
323.15 K, x2 = 0 | 0.0294 | 965.45 | 192.24
323.15 K, x2 = 0.25 | 0.0392 | 967.39 | 145.61
323.15 K, x2 = 0.5 | 0.0635 | 971.55 | 102.76
323.15 K, x2 = 0.75 | 0.128 | 979.59 | 56.03
333.15 K, x2 = 0 | 0.0447 | 959.5 | 114.05
333.15 K, x2 = 0.25 | 0.0563 | 961.39 | 87.86
333.15 K, x2 = 0.5 | 0.093 | 965.34 | 65.77
333.15 K, x2 = 0.75 | 0.183 | 972.96 | 36.96
343.15 K, x2 = 0 | 0.065 | 953.54 | 72.45
343.15 K, x2 = 0.25 | 0.0858 | 955.37 | 56.87
343.15 K, x2 = 0.5 | 0.132 | 959.05 | 43.81
343.15 K, x2 = 0.75 | 0.258 | 966.29 | 24.58
